In PubChem BioAssay AID256 (DTP/NCI, 2004):
Several values for one entry are separate records, joined by “and”; a condition that tells them apart may be missing. Equal values may be shown once. Toxic doses and inconclusive results are not listed. Rule for the calls: active = survival T/C of 150% or more; inactive = T/C below 125% in these data.

Test system: CD2F1 mice, L1210 leukemia ip, survival T/C
Assay: NCI In Vivo Anticancer Drug Screen. Data for tumor model L1210 Leukemia (intraperitoneal) in CD2F1 (CDF1) mice
Conditions: endpoint: mean survival time, higher = longer survival
Method in brief: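 Implant tumor; dose compound or vehicle; measure endpoint in both groups; report treated divided by control.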

[1] = dose: 100.0 mg/kg/injection, schedule: Q01DX009 (ip), vehicle: saline with Tween-80
[2] = dose: 100.0 mg/kg/injection, schedule: Q04DX003 (ip), vehicle: saline with Tween-80
[3] = dose: 200.0 mg/kg/injection, schedule: Q01DX009 (ip), vehicle: saline with Tween-80
[4] = dose: 200.0 mg/kg/injection, schedule: Q04DX003 (ip), vehicle: saline with Tween-80
[5] = dose: 400.0 mg/kg/injection, schedule: Q01DX009 (ip), vehicle: saline with Tween-80
[6] = dose: 400.0 mg/kg/injection, schedule: Q04DX003 (ip), vehicle: saline with Tween-80

Measured: T/C

S=C1SCCN1C1CCCCC1
inactive: [1] 102 % of control | [2] 92 % of control | [3] 96 % of control | [4] 96 % of control | [5] 93 % of control | [6] 92 % of control

CN(C)N=Nc1ccc(Cl)cc1C(N)=O
inactive: dose: 18.8 mg/kg/injection, schedule: Q01DX009 (ip), vehicle: Klucel (hydroxypropylcellulose) (HPC) 93 % of control and 98 % of control | dose: 37.5 mg/kg/injection, schedule: Q01DX009 (ip), vehicle: Klucel (hydroxypropylcellulose) (HPC) 91 % of control and 95 % of control | dose: 75.0 mg/kg/injection, schedule: Q01DX009 (ip), vehicle: Klucel (hydroxypropylcellulose) (HPC) 91 % of control and 104 % of control | dose: 150.0 mg/kg/injection, schedule: Q01DX009 (ip), vehicle: Klucel (hydroxypropylcellulose) (HPC) 114 % of control

NC(=O)NC(=S)NC(=O)c1ccccc1
inactive: [1] 111 % of control | [2] 102 % of control | [3] 98 % of control | [4] 98 % of control | [5] 98 % of control | [6] 101 % of control

CCN(C(=O)CCl)C(C)(C)C(SSSC(c1ccc(Cl)cc1)C(C)(C)N(CC)C(=O)CCl)c1ccc(Cl)cc1 (stereo not given)
inactive: dose: 12.5 mg/kg/injection, schedule: Q01DX009 (ip), vehicle: saline 96 % of control | dose: 25.0 mg/kg/injection, schedule: Q01DX009 (ip), vehicle: saline 102 % of control | dose: 50.0 mg/kg/injection, schedule: Q01DX009 (ip), vehicle: saline 95 % of control and 106 % of control | dose: 100.0 mg/kg/injection, schedule: Q01DX009 (ip), vehicle: saline 100 % of control

Cn1nc(CC#N)c2c(N)ncnc21
inactive: dose: 12.5 mg/kg/injection, schedule: Q01DX005 (ip), vehicle: water 96 % of control | dose: 25.0 mg/kg/injection, schedule: Q01DX005 (ip), vehicle: water 93 % of control | dose: 50.0 mg/kg/injection, schedule: Q01DX005 (ip), vehicle: water 92 % of control | dose: 100.0 mg/kg/injection, schedule: Q01DX005 (ip), vehicle: water 88 % of control | dose: 200.0 mg/kg/injection, schedule: Q01DX005 (ip), vehicle: water 91 % of control

CCC1=[N+]([O-])[N+]([O-])=C(c2ccccc2)C1=O
inactive: dose: 50.0 mg/kg/injection, schedule: Q01DX009 (ip), vehicle: other 93 % of control | dose: 100.0 mg/kg/injection, schedule: Q01DX009 (ip), vehicle: other 101 % of control | dose: 200.0 mg/kg/injection, schedule: Q01DX009 (ip), vehicle: other 93 % of control

CCOC(=O)CC/C=C\Cc1c(OC)c(C)c2c(c1OC(=O)Nc1ccc(C(C)=O)cc1)C(=O)OC2
inactive: dose: 100.0 mg/kg/injection, schedule: Q04DX002 (ip), vehicle: saline with Tween-80 121 % of control

C[n+]1ccc(Nc2ccc(NC(=O)c3ccc(Nc4cc[n+](C)c5ccc([N+](=O)[O-])cc45)cc3)cc2)cc1
inactive: dose: 1.0 mg/kg/injection, schedule: Q01DX009 (ip), vehicle: water 103 % of control | dose: 2.0 mg/kg/injection, schedule: Q01DX009 (ip), vehicle: water 110 % of control | dose: 4.0 mg/kg/injection, schedule: Q01DX009 (ip), vehicle: water 116 % of control
active: dose: 16.0 mg/kg/injection, schedule: Q01DX009 (ip), vehicle: water 174 % of control | dose: 32.0 mg/kg/injection, schedule: Q01DX009 (ip), vehicle: water 223 % of control | dose: 50.0 mg/kg/injection, schedule: Q04DX003 (ip), vehicle: saline 162 % of control | dose: 100.0 mg/kg/injection, schedule: Q04DX003 (ip), vehicle: saline 186 % of control | dose: 200.0 mg/kg/injection, schedule: Q04DX003 (ip), vehicle: saline 201 % of control

O=C(C[n+]1ccc2ccccc2c1)c1ccccc1
inactive: dose: 25.0 mg/kg/injection, schedule: Q04DX003 (ip), vehicle: saline sonified 98 % of control | dose: 50.0 mg/kg/injection, schedule: Q04DX003 (ip), vehicle: saline sonified 93 % of control

Nc1nc(N)n(-c2ccccn2)n1
inactive: dose: 75.0 mg/kg/injection, schedule: Q01DX001 (ip), vehicle: other 101 % of control | dose: 150.0 mg/kg/injection, schedule: Q01DX001 (ip), vehicle: other 97 % of control

CCCCNC(=O)Nc1cccc2c(O)cccc12
inactive: dose: 50.0 mg/kg/injection, schedule: Q01DX009 (ip), vehicle: DMSO 97 % of control

[N-]=[N+]=CC(=O)NCC(=O)NCCNCCO
active: dose: 400.0 mg/kg/injection, schedule: Q01DX009 (ip), vehicle: other 156 % of control | dose: 600.0 mg/kg/injection, schedule: Q01DX009 (ip), vehicle: other 164 % of control | dose: 800.0 mg/kg/injection, schedule: Q01DX009 (ip), vehicle: other 155 % of control
